In PMC8949366, “Synthesis of Marine Cyclopeptide Galaxamide Analogues as Potential Anticancer Agents” (Marine Drugs, 2022):
≈ marks a conversion by molar mass, not a printed value. Where “and” joins values, the source holds several entries; their conditions need not be identical. Equal values may be shown once. Entries after “also recorded” stand apart in the source; their conditions may differ. Read-outs that look alike come from different tables or passages of the source. Square brackets hold non-standard residues; d marks the D form. Peptide text beside a SMILES is read from it.

How the values were obtained:
A549 = type: cell-based, human; details: 72 h
Protocol: (§1) Cell culture: MCF-7/MD-MAB-231 (human breast cancer cell line ATCC HTB-22/HTB-26), Hep G2 (human liver cancer cell line ATCC HB-8065), Hela (human cervical carcinoma cell line ATCC CCL-2), A459 (human lung cancer cell line ATCC CCL-185), and HUVEC (primary umbilical vein endothelial cell line ATCC PCS-100-010) were obtained from the Jinan Department of Pathology, University School of Medicine (Jinan University, Guangzhou, China). The cells were cultured in a Modified Eagle’s Medium (DMEM) including 10% fetal bovine serum, 1% penicillin-streptomycin, and antifungal agent, and cultured under standard conditions (5% CO2 atmosphere and temperature at 37 °C). The MTT method was used to evaluate the cytotoxicities of galaxamide and its analogues on the five cancerous cells. In this experiment, the number of regulated cells was 2 × 10^3 cells/well. Then, the cells, as well as galaxamide and its analogues of different concentrations (0, 2.5, 5, and 10 μg/mL), were seeded on a 96-well cell culture plate and cultured in a 37 °C, 5% CO2 incubator for 72 h. After that, 20 µL/well of MTT solution (5 mg/mL phosphate-buffered saline) was added and incubated for 5 h. The medium was discarded and replaced with 100 µL/well of DMSO to dissolve the formazan salt. The color intensity of the cell culture at 570 nm was measured using a microplate spectrophotometer (SpectroAma™ 250, Winooski, VT, USA).

HUVEC = type: cell-based, human; details: 72 h
Protocol: as §1

Hela = type: cell-based, human; details: 72 h
Protocol: as §1

HepG2 = type: cell-based, human; details: 72 h
Protocol: as §1

MCF-7 = type: cell-based, human; details: 72 h
Protocol: as §1

MD-MBA-231 = type: cell-based, human; details: 72 h
Protocol: as §1

MCF-7 cells [1] = assay: Cell cycle distribution by propidium iodide staining / flow cytometry; type: cell-based, human; details: 0, 2.5, 5, 10 µg/mL, 72 h
Protocol: Therefore, propidium iodide (PI) staining method was used to further investigate the changes in the cell cycle distribution of MCF-7. In particular, MCF-7 cells were exposed to galaxamide, Z-3, and Z-6 with concentrations of 0, 2.5, 5, and 10 µg/mL for 72 h. Generally, the main effects of galaxamide, Z-3, and Z-6 on MCF-7 cells were in the G0/G1 phase. There was no obvious sub diploid peak in flow cytometry.
(§2) The concentration of 1 × 10^4 cells per well of MCF-7 cells were seeded in 96-well plates. The cell cultures were added to the compounds with a concentration of 0, 2.5, 5, and 10 µg/mL, and incubated for 72 h. After that, 5 µL of Annexin V-fluorescein isothiocyanate (FITC) and 5 µL of PI were added for dual staining of the cells for analysis by FACS flow cytometry. Cell cycles and apoptotic cells were determined by counting the FITC-positive and PI-negative fractions.

MCF-7 cells [2] = assay: Annexin V-FITC/PI double staining apoptosis, flow cytometry; type: cell-based, human; details: 0, 2.5, 5, 10 µg/mL, 72 h
Protocol: The Annexin V-FITC/PI double staining method was used to analyze the changes in the apoptosis of MCF-7 cells after 72 h of galaxamide, Z-3, and Z-6 exposure. […] At low concentrations, the effects of all the tested compounds were not obvious. When the concentration reached 10 μg/mL, the apoptotic effects of galaxamide, Z-3, and Z-6 on MCF-7 cells were more obvious in the late apoptotic state.
as §2
The apoptotic cells were quantified according to the instructions provided in an Annexin V-FITC (Sigma-Aldrich, St. Louis, MO, USA) cell apoptosis assay kit. Briefly, about 1.5 × 10^5 cells were plated in 96-well plates and treated with galaxamide and its representative analogues (0, 2.5, 5, and 10 µg/mL) for 48 h. The cells were then resuspended in a […] binding buffer. Afterward, […] of annexin V-fluorescein isothiocyanate (FITC) was added, followed by incubation in darkness at room temperature for 10 min. The cells were again resuspended in […] binding buffer and stained with […] PI. The prepared cells were then analyzed using a flow cytometry (Coulter Epics Elite, Miami, FL, USA). The cells in the FITC-positive and PI-negative fractions were regarded as apoptotic cells.

MCF-7 cells [3] = assay: Hoechst 33,342 staining of nuclear morphology; type: cell-based, human; details: 72 h
Protocol: The morphological alteration of MCF-7 cells was analyzed by the method of Hoechst 33,342 staining (Figure 5). […] The pyknotic nuclei increased with the increasing concentration of these compounds.
[…] After that, the cell culture was washed with 1 mL of PBS and then added with 3 mL of 4% paraformaldehyde solution for 15 min. Then, 1 mL of the prepared Hoechst 33,342 staining solution was added. The resulting mixture was incubated at room temperature for 15 min in the dark.

[4] = amide bond, 15-membered ring, PyBOP/DIEA, DCM, 0.375 mM, 25.0 °C

Row | Compound | IC50 A549 (A549) [µg/mL] | IC50 HUVEC (HUVEC) [µg/mL] | IC50 Hela (Hela) [µg/mL] | IC50 HepG2 (HepG2) [µg/mL] | IC50 MCF-7 (MCF-7) [µg/mL] | IC50 MD-MBA-231 (MD-MBA-231) [µg/mL] | also measured
1 | CC(C)C[C@@H]1NC(=O)[C@@H]2CCCN2C(=O)[C@@H](CC(C)C)NC(=O)[C@@H]2CCCN2C(=O)[C@@H](CC(C)C)NC1=O [Compound Z-7, Cyclo (Leu-Pro-D-Leu-Pro-D-Leu)] (cyclo(L[dL]P[dL]P)) | 9.97 ± 1.00 (≈ 18.7 µM) | >40 | 18.21 ± 1.35 (≈ 34.1 µM) | 13.85 ± 1.99 (≈ 26 µM) | 13.28 ± 3.28 (≈ 24.9 µM) | 16.52 ± 1.70 (≈ 31 µM) | –
2 | CC(C)C[C@@H]1NC(=O)[C@@H]2CCCN2C(=O)[C@@H](CC(C)C)NC(=O)[C@@H](CC(C)C)NC(=O)[C@@H]2CCCN2C1=O [Compound Z-6, Cyclo (D-Leu-Pro-Leu-Pro-D-Leu)] (cyclo(LP[dL][dL]P)) | 5.96 ± 0.41 (≈ 11.2 µM) | 38.72 ± 0.67 (≈ 72.5 µM) | 5.69 ± 0.37 (≈ 10.7 µM) | 2.91 ± 0.17 (≈ 5.45 µM) | 1.65 ± 0.30 (≈ 3.09 µM) | 4.59 ± 0.27 (≈ 8.6 µM) | Effect on cell cycle of MCF-7 (in words) (MCF-7 cells [1]): mainly blocked the growth of cells in the G0/G1 phase; Apoptosis of MCF-7 cells (in words) (MCF-7 cells [2]): significantly higher than those of galaxamide; also recorded: concentration-dependent apoptosis; Nuclear morphology of MCF-7 cells (in words) (MCF-7 cells [3]): the morphology of the nuclei was significantly changed
3 | CC(C)C[C@@H]1NC(=O)[C@H](CC(C)C)N(C)C(=O)[C@H](CC(C)C)NC(=O)[C@@H]2CCCN2C(=O)[C@H](CC(C)C)NC1=O [Compound Z-1, Cyclo (Leu-N-Me-Leu-Leu-Pro-Leu)] | 4.92 ± 0.84 (≈ 8.73 µM) | >40 | 11.56 ± 0.65 (≈ 20.5 µM) | 7.57 ± 0.17 (≈ 13.4 µM) | 5.85 ± 1.28 (≈ 10.4 µM) | 17.81 ± 0.60 (≈ 31.6 µM) | –
4 | CC(C)C[C@@H]1NC(=O)[C@@H]2CCCN2C(=O)[C@H](CC(C)C)NC(=O)[C@@H]2CCCN2C(=O)[C@@H](CC(C)C)NC1=O [Cyclo (Leu-Pro-Leu-Pro-D-Leu)] | – | – | – | – | – | – | ring closure, yield after HPLC ([4]; from H-dLeu-Pro-Leu-Pro-Leu-OH?): 58.9%
5 | CC(C)C[C@H]1NC(=O)[C@@H]2CCCN2C(=O)[C@@H](CC(C)C)NC(=O)[C@@H]2CCCN2C(=O)[C@@H](CC(C)C)NC1=O [Compound Z-8, Cyclo (D-Leu-Pro-D-Leu-Pro-D-Leu)] (cyclo(P[dL]P[dL][dL])) | 15.88 ± 1.42 (≈ 29.8 µM) | >40 | 7.97 ± 0.61 (≈ 14.9 µM) | 9.00 ± 0.83 (≈ 16.9 µM) | 7.82 ± 1.18 (≈ 14.7 µM) | 20.16 ± 2.24 (≈ 37.8 µM) | –
6 | CC(C)C[C@@H]1NC(=O)[C@@H]2CCCN2C(=O)[C@@H](CC(C)C)NC(=O)[C@@H]2CCCN2C(=O)[C@H](CC(C)C)NC1=O [Cyclo (Leu-Pro-D-Leu-Pro-Leu)] | – | – | – | – | – | – | ring closure, yield after HPLC ([4]; from H-Leu-Pro-dLeu-Pro-Leu-OH?): 36.4%
7 | CC(C)C[C@@H]1NC(=O)[C@@H]2CCCN2C(=O)[C@@H](CC(C)C)NC(=O)[C@@H]2CCCN2C(=O)[C@H](CC(C)C)NC1=O [Compound Z-5, Cyclo (Leu-Pro-Leu-Pro-D-Leu)] (cyclo(LLP[dL]P)) | 9.50 ± 1.13 (≈ 17.8 µM) | >40 | 12.12 ± 0.95 (≈ 22.7 µM) | 14.98 ± 0.93 (≈ 28.1 µM) | 13.43 ± 1.96 (≈ 25.2 µM) | 8.48 ± 1.12 (≈ 15.9 µM) | –
8 | CC(C)C[C@@H]1NC(=O)[C@@H]2CCCN2C(=O)[C@H](CC(C)C)NC(=O)[C@@H]2CCCN2C(=O)[C@H](CC(C)C)NC1=O [Cyclo (Leu-Pro-Leu-Pro-Leu)] | – | – | – | – | – | – | ring closure, yield after HPLC ([4]; from H-Leu-Pro-Leu-Pro-Leu-OH?): 35.5% and 53.9%
9 | CC(C)C[C@H]1NC(=O)[C@@H]2CCCN2C(=O)[C@@H](CC(C)C)NC(=O)[C@@H]2CCCN2C(=O)[C@@H](CC(C)C)NC1=O [Cyclo (D-Leu-Pro-D-Leu-Pro-D-Leu)] | – | – | – | – | – | – | ring closure, yield after HPLC ([4]; from H-dLeu-Pro-dLeu-Pro-dLeu-OH?): 46.2%
10 | CC(C)C[C@@H]1NC(=O)[C@@H]2CCCN2C(=O)[C@H](CC(C)C)NC(=O)[C@@H]2CCCN2C(=O)[C@@H](CC(C)C)NC1=O [Compound Z-4, Cyclo (Leu-Pro-D-Leu-Pro-Leu)] (cyclo(LPL[dL]P)) | 9.85 ± 0.95 (≈ 18.5 µM) | >40 | 7.38 ± 0.83 (≈ 13.8 µM) | 15.23 ± 1.14 (≈ 28.5 µM) | 4.88 ± 0.58 (≈ 9.14 µM) | 22.09 ± 1.12 (≈ 41.4 µM) | –
11 | CC(C)C[C@@H]1NC(=O)[C@@H]2CCCN2C(=O)[C@@H](CC(C)C)NC(=O)[C@@H]2CCCN2C(=O)[C@@H](CC(C)C)NC1=O [Cyclo (Leu-Pro-D-Leu-Pro-D-Leu)] | – | – | – | – | – | – | ring closure, yield after HPLC ([4]; from H-dLeu-Pro-dLeu-Pro-Leu-OH?): 54.6%
12 | CC(C)C[C@@H]1NC(=O)[C@H](CC(C)C)N(C)C(=O)[C@H](CC(C)C)NC(=O)[C@@H]2CCCN2C(=O)[C@H](CC(C)C)NC1=O [Cyclo (Leu-N-Me-Leu-Leu-Pro-Leu)] | – | – | – | – | – | – | ring closure, yield after HPLC ([4]; from H-Leu-Pro-Leu-MeLeu-Leu-OH): 40.7%
13 | CC(C)C[C@@H]1NC(=O)[C@@H]2CCCN2C(=O)[C@@H](CC(C)C)NC(=O)[C@@H](CC(C)C)NC(=O)[C@@H]2CCCN2C1=O [Cyclo (D-Leu-Pro-Leu-Pro-D-Leu)] | – | – | – | – | – | – | ring closure, yield after HPLC ([4]; from H-dLeu-Pro-Leu-Pro-dLeu-OH?): 34.5%
14 | CC(C)C[C@@H]1NC(=O)[C@@H]2CCCN2C(=O)[C@H](CC(C)C)NC(=O)[C@@H]2CCCN2C(=O)[C@H](CC(C)C)NC1=O [Compound Z-2, Cyclo (Leu-Pro-Leu-Pro-Leu)] (cyclo(LLPLP)) | 7.97 ± 2.06 (≈ 14.9 µM) | >40 | 14.50 ± 0.36 (≈ 27.2 µM) | 11.95 ± 0.64 (≈ 22.4 µM) | 4.68 ± 1.22 (≈ 8.77 µM) | 14.45 ± 1.10 (≈ 27.1 µM) | –
